Test results as given in article PMC3914206.

Key:
[1] = molecular target: T1, panel of 442 kinases (Homo sapiens, UniProt Q96L34); format: binding; conditions: Compound Concentration 10 µM
T1 construct: purchased KINOMEscan
T1 sequence (Q96L34 1-752): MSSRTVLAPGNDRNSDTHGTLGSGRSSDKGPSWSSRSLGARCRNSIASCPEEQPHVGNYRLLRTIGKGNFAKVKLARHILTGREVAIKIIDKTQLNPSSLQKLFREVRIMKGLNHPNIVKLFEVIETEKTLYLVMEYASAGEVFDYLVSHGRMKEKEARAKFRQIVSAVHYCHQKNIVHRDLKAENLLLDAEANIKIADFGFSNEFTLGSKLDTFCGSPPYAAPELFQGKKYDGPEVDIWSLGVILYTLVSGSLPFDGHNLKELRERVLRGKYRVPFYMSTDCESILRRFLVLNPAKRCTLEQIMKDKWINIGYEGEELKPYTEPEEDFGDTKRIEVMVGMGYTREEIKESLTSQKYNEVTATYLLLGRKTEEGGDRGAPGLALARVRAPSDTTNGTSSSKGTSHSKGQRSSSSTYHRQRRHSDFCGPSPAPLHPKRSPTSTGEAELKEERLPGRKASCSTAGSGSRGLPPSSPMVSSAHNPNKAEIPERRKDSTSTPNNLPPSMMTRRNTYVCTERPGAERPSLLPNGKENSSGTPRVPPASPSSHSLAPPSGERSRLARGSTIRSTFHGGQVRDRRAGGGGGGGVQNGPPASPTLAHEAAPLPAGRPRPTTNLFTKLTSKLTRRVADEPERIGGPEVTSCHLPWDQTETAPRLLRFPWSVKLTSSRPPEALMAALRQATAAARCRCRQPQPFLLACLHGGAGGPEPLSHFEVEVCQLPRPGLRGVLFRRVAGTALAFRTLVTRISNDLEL
Description: (§1) We assessed the selectivity of members of this scaffold using the KINOMEscan methodology across a near comprehensive panel of 442 kinases [[18,27]].

[2] = molecular target: T2, panel of 442 kinases (Homo sapiens, UniProt Q15831); format: binding; conditions: Compound Concentration 10 µM
T2 construct: purchased KINOMEscan
T2 sequence (Q15831 1-433): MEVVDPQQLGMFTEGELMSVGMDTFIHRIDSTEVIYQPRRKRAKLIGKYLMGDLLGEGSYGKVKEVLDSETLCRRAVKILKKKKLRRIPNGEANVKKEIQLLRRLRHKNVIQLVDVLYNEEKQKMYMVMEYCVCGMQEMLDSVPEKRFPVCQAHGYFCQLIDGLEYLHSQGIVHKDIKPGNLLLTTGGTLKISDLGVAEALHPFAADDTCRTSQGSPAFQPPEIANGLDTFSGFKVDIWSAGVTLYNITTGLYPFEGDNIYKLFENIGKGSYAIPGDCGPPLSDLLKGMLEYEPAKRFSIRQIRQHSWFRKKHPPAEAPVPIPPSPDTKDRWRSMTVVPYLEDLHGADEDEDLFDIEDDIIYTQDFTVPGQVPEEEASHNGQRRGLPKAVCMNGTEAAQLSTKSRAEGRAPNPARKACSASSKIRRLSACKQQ
Description: as §1

Compound: COc1cc(C(=O)N2CCC(N3CCN(C)CC3)CC2)ccc1Nc1ncc2c(n1)N(C)c1ccccc1C(=O)N2C [15 (LRRK2-IN-1)]
- KINOMEscan: MARK4 [1]: 78
- KINOMEscan: LKB1 [2]: 96

Compound: COc1cc(C(=O)N2CCC(N3CCN(C)CC3)CC2)ccc1Nc1ncc2c(n1)N1CCc3cccc(c31)C(=O)N2C [Compound 24]
- KINOMEscan: MARK4 [1]: 87

Compound: COc1cc(C(=O)N2CCC(N3CCN(C)CC3)CC2)ccc1Nc1ncc2c(n1)N(C1CCCC1)c1ccccc1C(=O)N2C [Compound 25, 11-cyclopentyl-2-((2-methoxy-4-(4-(4-methylpiperazin-1-yl)piperidine-1-carbonyl)phenyl)amino)-5-methyl-5H-benzo[e]pyrimido[5,4-b][1,4]diazepin-6(11H)-one]
- KINOMEscan: MARK4 [1]: 100
- KINOMEscan: LKB1 [2]: 82

Compound: CCOc1cc(C(=O)N2CCC(N3CCN(C)CC3)CC2)ccc1Nc1ncc2c(n1)N(C1CCCC1)c1ccccc1C(=O)N2C [Compound 26]
- KINOMEscan: MARK4 [1]: 100
- KINOMEscan: LKB1 [2]: 100
